{"source": "patent US12234477B2", "about": "“Scalable primate pluripotent stem cell aggregate suspension culture” (ViaCyte, Inc., priority 2008, dated 2025)", "molecules": {"B1": {"name": "noggin: recombinant human Noggin, BMP antagonist (protein, UniProt Q13253 28-232, looked up)", "Noggin": "QHYLHIRPAPSDNLPLVDLIEHPDPIFDPKEKDLNETLLRSLLGGHYDPGFMATSPPEDRPGGGGGAAGGAEDLAELDQLLRQRPSGAMPSEIKGLEFSEGLAQGKKQRLSKKLRRKLQMWLWSQTFCPVLYAWNDLGSRFWPRYVKVGSCFSKRSCSVPEGMVCKPSKSVHLTVLRWRCQRRGGQRCGWIPIQYPIISECKCSC"}}, "key": {"[1]": {"target": "T1, ErbB2 (Homo sapiens, UniProt P04626)", "T1 construct": "endogenous in cells; host or cells: human embryonic stem cells (hESCs) grown in DC-HAIF", "T1 sequence (P04626 23-1255)": "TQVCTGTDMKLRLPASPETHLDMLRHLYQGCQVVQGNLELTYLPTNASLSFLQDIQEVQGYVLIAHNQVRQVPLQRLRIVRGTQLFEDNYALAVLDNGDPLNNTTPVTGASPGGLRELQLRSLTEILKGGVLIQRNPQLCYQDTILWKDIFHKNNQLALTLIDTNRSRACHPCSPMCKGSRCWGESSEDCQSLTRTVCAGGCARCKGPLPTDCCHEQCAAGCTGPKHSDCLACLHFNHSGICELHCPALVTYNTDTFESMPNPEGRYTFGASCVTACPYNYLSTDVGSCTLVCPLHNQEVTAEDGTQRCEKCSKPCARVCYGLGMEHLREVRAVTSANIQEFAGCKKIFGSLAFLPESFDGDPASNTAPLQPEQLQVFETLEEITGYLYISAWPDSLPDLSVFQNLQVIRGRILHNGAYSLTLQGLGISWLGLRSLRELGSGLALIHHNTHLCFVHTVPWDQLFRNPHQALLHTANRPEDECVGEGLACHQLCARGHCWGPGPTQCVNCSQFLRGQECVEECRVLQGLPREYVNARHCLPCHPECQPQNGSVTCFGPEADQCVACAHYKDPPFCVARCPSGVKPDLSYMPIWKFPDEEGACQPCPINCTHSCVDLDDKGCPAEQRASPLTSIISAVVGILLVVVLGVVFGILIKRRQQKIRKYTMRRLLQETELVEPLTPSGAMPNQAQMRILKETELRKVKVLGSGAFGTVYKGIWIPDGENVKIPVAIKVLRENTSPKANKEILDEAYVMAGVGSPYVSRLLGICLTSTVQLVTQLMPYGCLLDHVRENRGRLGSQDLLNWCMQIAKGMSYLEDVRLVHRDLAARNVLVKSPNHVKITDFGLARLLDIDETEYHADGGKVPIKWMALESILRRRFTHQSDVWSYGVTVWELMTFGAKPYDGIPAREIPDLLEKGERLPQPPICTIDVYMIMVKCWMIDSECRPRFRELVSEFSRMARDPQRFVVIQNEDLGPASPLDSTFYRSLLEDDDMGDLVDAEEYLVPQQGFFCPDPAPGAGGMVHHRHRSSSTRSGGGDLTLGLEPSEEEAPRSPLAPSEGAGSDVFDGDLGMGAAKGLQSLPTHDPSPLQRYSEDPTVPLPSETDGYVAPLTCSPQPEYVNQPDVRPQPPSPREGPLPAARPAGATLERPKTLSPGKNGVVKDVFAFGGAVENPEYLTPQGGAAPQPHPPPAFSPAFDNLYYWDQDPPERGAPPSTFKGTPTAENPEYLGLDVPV", "assay": "Western blotting of ErbB2 autophosphorylation in starved/heregulin pulsed hESCs in DC-HAIF", "format": "cell-based", "from_the_text": "(§1) Colony and cell-counting assays confirmed that LongR3-IGF1 and HRG played the major roles in self-renewal and proliferation in the context of one of the embodiments of the present invention (FIG. 6D, FIG. 6E). Phosphorylation of IGF1R, IR, […], ErbB2, and ErbB3 was also observed in both steady-state DC-HAIF cultures, and in starved cultures that were pulsed with DC-HAIF (FIG. 6F)."}, "[2]": {"test_system": "BG02 hESCs", "assay": "Proliferation of hESCs growing in conditioned medium (CM) with AG825", "format": "cell-based", "from_the_text": "FIGS. 6A-6F depict the inhibition of proliferation of BG02 cells grown in conditioned media (CM). […] The mean and range of normalized relative intensity is plotted (right).\nas §1"}, "[3]": {"test_system": "hESCs", "assay": "hESC proliferation at physiological levels of insulin and IGF1, cell counting", "format": "cell-based, human", "conditions": "titrated about 0.2 to about 200 ng/mL, counting after 5 days", "experimental": "Essentially all of the reported culture conditions for hESCs to date include supraphysiological levels of insulin, which can stimulate both IR and IGF1R. To distinguish the activities that insulin and insulin-substitutes exert, compared to IGF1, hESCs are cultured in defined media conditions in physiological levels of these growth factors. The concentrations of insulin and IGF1 are titrated from about 0.2 to about 200 ng/mL and cell proliferation is monitored by counting cells after 5 days. Cultures that expand successfully are serially passaged 5 times."}, "[4]": {"test_system": "ES cells", "assay": "Suspension cultures in various media, cell counting", "format": "cell-based", "conditions": "in all conditions (HAIF, HAI, HI)", "experimental": "To determine if suspensions of ES cells could be cultured in the absence of FGF2 and/or Activin A, ES cells were cultured in a variety of media, with and without these factors. […] In addition, the cells in each media were successfully passaged with no morphological signs of differentiation."}, "[5]": {"test_system": "hES-derived pancreatic epithelial and endocrine type cells", "assay": "Re-aggregation of dissociated stage 4 or stage 5 adherent cultures", "format": "cell-based, human", "conditions": "10 μM", "experimental": "Adherent cultures at either stage 4 (about d10-d14 into the differentiation protocol; pancreatic epithelial and endocrine type cells) or stage 5 (about day 16 to day 30 into the differentiation protocol; endocrine precursor and endocrine cells) were similarly dissociated into single cells, counted, and pelleted. The cell pellet was then resuspended in DMEM CMRL supplemented Pen/Strep and GLUTAMAX™, and 1X B27-supplement and DNase (50-100 μg/mL, Roche Diagnostics) and 0-2% FBS. […] Cells were equally distributed into 6-well plates and placed on a rotating platform at 100 rpm to 140 rpm form 4 hours to overnight substantially as described above."}, "[6]": {"test_system": "BG02 cells", "assay": "Suspension aggregates of BG02 cells in DC-HAIF with and without Y27632, cell counting", "format": "cell-based, human", "experimental": "To attenuate the loss of cells after initial passaging in suspension, an inhibitor of apoptosis was added to the medium. Cells were passaged as in Example 12, except that Y-27632, an inhibitor of p160-Rho-associated coiled-coil kinase (ROCK), was added to the medium.\nSuspension aggregates of BG02 cells were formed by seeding 2×10^6 single cells in 6-well dishes in 3 mL DC-HAIF medium, at 100 rpm on a rotating platform in an incubator (Table 4, Experiment A). 10 μM Y27632 ROCK inhibitor was added to test wells for the course of the experiment and the cultures observed daily and counted after 24 hours (day 1) and after 4 or 5 days. […] Cell counting confirmed that more viable cells were present in the presence of inhibitor (Table 4, Experiment A). This difference in cell number persisted throughout the course of the culture period, with more cells also observed on day 4, compared to cultures without inhibitor. As with previous suspension culture experiments, cells exposed to Y27632 could also be serially passaged, and maintained in an undifferentiated state (not shown). […]\nBecause of the enhanced survival and aggregation observed in the presence of Y27632, an experiment was performed to examine if it was possible to reduce the number of cells used to seed suspension cultures (Table 4, Experiment C). […] To determine if addition of a ROCK inhibitor would allow cell seeding at lower densities, a range of cell concentrations (from about 2×10^6 total cells down to about 1×10^5 total cells was used to seed suspension cultures in 6-well trays cells in 3 mL DC-HAIF. 10 μM Y27632 was added to all conditions, and the cell number and viability assessed on day 5. Successful aggregation and expansion was observed even at low seeding densities. An approximately 13 fold expansion of viable cells was observed even in cultures that were only seeded with 1×10^5 cells. Inhibition of ROCK with Y27632 therefore facilitated initial survival of hESCs at much lower densities in this suspension system."}, "[7]": {"test_system": "BG01v cells", "assay": "Inhibition of proliferation of BG01v cells by ErbB tyrosine kinase inhibitors, alkaline phosphatase staining", "format": "cell-based", "experimental": "To examine the effect of known inhibitors of ErbB tyrosine kinases in hESCs, BG01v cells were plated in 6 well trays on […]™ diluted at 1:1000, in defined culture medium (DC) containing 100 ng/mL LongR3-IGF1, 8 ng/mL FGF2 and 1 ng/mL Activin A. On the next day, DMSO (carrier control), 50 nM-20 μM AG1478 (an ErbB1 inhibitor), or 100 nM-20 μM AG879 (an ErbB2 inhibitor) was added with fresh medium. The cells were cultured for an additional 5 days, with daily media changes. The cultures were then fixed and stained for alkaline phosphatase activity."}, "[8]": {"test_system": "R1 mouse ES cells", "assay": "Inhibition of ErbB1 and ErbB2 signaling in mouse ES cells, alkaline phosphatase staining", "format": "cell-based", "experimental": "AG1478 and AG879 were used to examine the role of HRG/ErbB signaling in mouse ES cells. R1 mouse ES cells were maintained in standard conditions in DMEM, 10% FBS, 10% KSR, 0.5 U/mL penicillin, 0.5 U/mL streptomycin, 1×NEAA, 1 mM sodium pyruvate, 1000 U/mL LIF (ESGRO), 0.1 mM β-ME, and were passaged with 0.5% trypsin/EDTA. 2×10^5 cells/well were plated in 6 well trays on […]™ diluted at 1:1000. The day after plating, DMSO (carrier control), 1-50 μM AG1478, or 1-50 μM AG879 was added with fresh medium. The cells were cultured an additional 8 days, with daily media changes. The cultures were then fixed and stained for alkaline phosphatase activity."}, "[9]": {"test_system": "hES-derived cell aggregates", "assay": "QPCR of endocrine progenitor markers after stage 3 with different noggin concentrations", "format": "cell-based, human", "conditions": "lower concentration (25 ng/mL vs 50 ng/mL) in stage 3; any given cell density", "experimental": "Human ES cell aggregates and hES-derived cell aggregates, including d0 cell aggregates produced directly in differentiation media, were generated substantially as described above. After about five (5) days of differentiation through stages 1 and 2, the differentiating cell aggregates were pooled and re-aliquoted into individual wells at different seeding densities, e.g., a 28 mL suspension of foregut endoderm stage cell aggregate suspension was seeded or re-aliquoted at 4, 6, 8 or 10 mL per well (a 2.5-fold range of cell densities). This cell distribution was carried out in duplicate and one set of wells was fed with a stage 3 media (DMEM/PenStrep/GLUTAMAX™+1% B27 supplement (vol/vol)+0.25 uM KAAD-cyclopamine+3 nM TTNPB) containing noggin at 50 ng/mL and the other set of wells contained noggin at 25 ng/mL. Stage 3 proceeded for 3 days with daily media exchange. Cell samples were taken in duplicate for real-time QPCR analysis at the end of the three days of stage 3 (or about day 8) and again at after stage 4 (or about day 14)."}, "[10]": {"conditions": "morphology, alkaline phosphatase activity"}}, "note": "“Also recorded” adds a separate entry of the source."}
{"molecule": "COc1cc(/C=C(\\C#N)C(N)=O)cc(CSc2nc3ccccc3s2)c1O", "note": "[AG825]", "values": [{"measurement": "autophosphorylation of ErbB2 at tyrosine-1248", "setting": "[1]", "value": "inhibited autophosphorylation of ErbB2 at tyrosine-1248; also recorded: inhibits ErbB2 Y1248 phosphorylation"}, {"measurement": "cell death", "setting": "[2]", "value": "without widespread cell death"}, {"measurement": "proliferation of hESCs", "setting": "[2]; 50 μM", "value": "significantly inhibited proliferation"}]}
{"molecule": "IGF1: insulin-like growth factor", "values": [{"measurement": "expansion of hESC cultures", "setting": "[3]", "value": "support the expansion of hESC cultures"}]}
{"molecule": "insulin: protein that binds to the insulin receptor", "values": [{"measurement": "expansion of hESC cultures", "setting": "[3]", "value": "do not"}]}
{"molecule": "C[C@@H](N)[C@H]1CC[C@H](C(=O)Nc2ccncc2)CC1", "note": "[Y27632]", "values": [{"measurement": "yield of cells generated by day 5", "setting": "[4]", "value": "increased the yield of cells"}, {"measurement": "cell survival", "setting": "[5]", "value": "supported cell survival"}, {"measurement": "initial survival and aggregation of hESCs in suspension culture", "setting": "[6]; 10 μM, compared to medium without inhibitor", "value": "much larger aggregates were formed; also recorded: enhanced initial survival and aggregation of hESCs; also recorded: enhancement of hESC aggregation"}, {"measurement": "cell number when the aggregates were split again", "setting": "[6]; Expt. A, compared to cultures without inhibitor", "value": "almost twice as many cells were observed"}, {"measurement": "differentiation state, RT-PCR of pluripotency markers", "setting": "[6]; suspension culture in the presence of Y27632", "value": "remained undifferentiated"}]}
{"molecule": "COc1cc2ncnc(Nc3cccc(Cl)c3)c2cc1OC", "note": "[AG1478]", "values": [{"measurement": "effect on cell proliferation", "setting": "[7]; 50 nM-20 μM, 5 days", "value": "neither DMSO nor AG1478 (50 nM-20 μM) had an apparent affect on cell proliferation; also recorded: did not appear to affect proliferation"}, {"measurement": "effect on cell proliferation", "setting": "[8]; 1-50 μM, 8 days, 10% FBS, 10% KSR, LIF", "value": "no apparent affect on cell proliferation; also recorded: did not overtly inhibit proliferation"}]}
{"molecule": "CC(C)(C)c1cc(/C=C(\\C#N)C(N)=S)cc(C(C)(C)C)c1O", "note": "[AG879]", "values": [{"measurement": "cell growth", "setting": "[7]; 5 μM, 5 days", "value": "substantially inhibited cell growth; also recorded: substantially slowed cell growth"}, {"measurement": "cell death", "setting": "[7]; 20 μM", "value": "caused cell death"}, {"measurement": "differentiation of cultures grown in inhibitor", "setting": "[7]; [10]", "value": "did not appear to differentiate"}, {"measurement": "proliferation", "setting": "[8]; 20 μM, 8 days", "value": "may have slowed proliferation"}, {"measurement": "cell growth", "setting": "[8]; 50 μM, 8 days", "value": "substantially inhibited cell growth"}, {"measurement": "concentration required to inhibit proliferation, mESCs relative to BG01v cells", "setting": "[8]; mESCs vs BG01v cells grown in defined conditions", "value": "~10", "unit": "×"}, {"measurement": "differentiation of mESCs grown in inhibitor", "setting": "[8]; [10]", "value": "did not appear to differentiate"}]}
{"molecule": "B1", "values": [{"measurement": "endocrine progenitor cell types, expression of NGN3 and NKX2-2", "setting": "[9]", "value": "reduced expression of NGN3 and NKX2-2"}]}
